The results in this text go back to patent publication US20240059671A1, “TYROSINE KINASE 2 (TYK2) DEGRADATION COMPOUNDS AND METHODS OF USE” (CULLGEN (SHANGHAI), INC., priority 2020, published 2024).

A value given as a limit tells only on which side of the number the result lay.

The target in this experiment is TYK2 (Homo sapiens, UniProt P29597). As to the kind of experiment: TYK2 protein degradation in MOLT-4 cells by immunoblotting. The format is cell-based. On the set-up: endogenous in cells; host or cells: MOLT-4. The note with it: MOLT-4 cells, 24 hours. Put shortly: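 Percent TYK2 degradation came from densitometry of chemiluminescent immunoblots of RIPA lysates. Before lysis, MOLT-4 cells had been treated for 24 h with each compound at 0.5 or 5 μM.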
Sequence of TYK2 (P29597 whole entry): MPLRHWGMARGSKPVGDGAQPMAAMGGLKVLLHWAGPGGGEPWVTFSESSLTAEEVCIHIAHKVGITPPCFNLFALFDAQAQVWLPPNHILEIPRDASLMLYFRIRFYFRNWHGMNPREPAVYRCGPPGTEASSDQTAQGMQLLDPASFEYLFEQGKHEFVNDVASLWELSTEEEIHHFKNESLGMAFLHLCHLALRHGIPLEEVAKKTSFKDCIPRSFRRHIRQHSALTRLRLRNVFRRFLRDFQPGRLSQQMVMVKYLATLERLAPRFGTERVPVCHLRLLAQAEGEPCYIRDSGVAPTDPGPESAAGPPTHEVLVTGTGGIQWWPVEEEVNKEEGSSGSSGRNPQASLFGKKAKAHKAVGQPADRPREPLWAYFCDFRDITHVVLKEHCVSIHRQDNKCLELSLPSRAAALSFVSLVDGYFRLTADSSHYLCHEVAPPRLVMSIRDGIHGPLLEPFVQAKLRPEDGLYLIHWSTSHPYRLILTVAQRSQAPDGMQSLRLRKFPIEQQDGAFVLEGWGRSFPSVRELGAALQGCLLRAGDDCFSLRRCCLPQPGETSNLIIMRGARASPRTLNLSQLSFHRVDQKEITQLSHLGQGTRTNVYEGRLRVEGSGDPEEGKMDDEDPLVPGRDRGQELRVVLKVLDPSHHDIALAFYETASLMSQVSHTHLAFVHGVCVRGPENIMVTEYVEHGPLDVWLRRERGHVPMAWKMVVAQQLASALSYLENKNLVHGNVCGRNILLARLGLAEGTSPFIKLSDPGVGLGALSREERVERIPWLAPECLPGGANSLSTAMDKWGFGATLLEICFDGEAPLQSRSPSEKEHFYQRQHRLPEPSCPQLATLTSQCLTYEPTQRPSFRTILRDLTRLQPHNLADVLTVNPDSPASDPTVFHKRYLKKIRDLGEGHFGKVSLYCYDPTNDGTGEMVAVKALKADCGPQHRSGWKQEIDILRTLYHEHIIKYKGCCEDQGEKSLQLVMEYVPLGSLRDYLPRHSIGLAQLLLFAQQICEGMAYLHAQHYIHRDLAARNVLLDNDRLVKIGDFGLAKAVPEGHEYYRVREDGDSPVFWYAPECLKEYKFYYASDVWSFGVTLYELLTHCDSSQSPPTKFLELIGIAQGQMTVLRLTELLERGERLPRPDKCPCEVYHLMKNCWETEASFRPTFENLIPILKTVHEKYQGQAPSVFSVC
In general terms: Immunoblotting shows a protein as a band on a membrane.

As to `CNC(=O)c1nnc(NC(=O)C2CC2)cc1Nc1cccc(-c2ncn(CCNC(=O)COCCOCCOCCOCCOCC(=O)N[C@H](C(=O)N3C[C@H](O)C[C@H]3C(=O)NCc3ccc(-c4scnc4C)cc3)C(C)(C)C)n2)c1OC` [CPD-073, N^1-(2-(3-(3-((6-(Cyclopropanecarboxamido)-3-(methylcarbamoyl)pyridazin-4-yl)amino)-2-methoxyphenyl)-1H-1,2,4-triazol-1-yl)ethyl)-N^17-((S)-1-((2S,4R)-4-hydroxy-2-((4-(4-methylthiazol-5-yl)benzyl)carbamoyl)pyrrolidin-1-yl)-3,3-dimethyl-1-oxobutan-2-yl)-3,6,9,12,15-pentaoxaheptadecanediamide], the “TYK2 Degradation (0.5 μM)” value is reported as no more than 20% and the “TYK2 Degradation (5 μM)” value is given as no more than 20%.
On to `CNC(=O)c1nnc(NC(=O)C2CC2)cc1Nc1cccc(-c2ncn(CCNC(=O)CCOCCOCCOCCOCCOCCC(=O)N[C@H](C(=O)N3C[C@H](O)C[C@H]3C(=O)NCc3ccc(-c4scnc4C)cc3)C(C)(C)C)n2)c1OC` [CPD-074, N^1-(2-(3-(3-((6-(Cyclopropanecarboxamido)-3-(methylcarbamoyl)pyridazin-4-yl)amino)-2-methoxyphenyl)-1H-1,2,4-triazol-1-yl)ethyl)-N^19-((S)-1-((2S,4R)-4-hydroxy-2-((4-(4-methylthiazol-5-yl)benzyl)carbamoyl)pyrrolidin-1-yl)-3,3-dimethyl-1-oxobutan-2-yl)-4,7,10,13,16-pentaoxanonadecanediamide], for which the “TYK2 Degradation (0.5 μM)” value is no more than 20% and the “TYK2 Degradation (5 μM)” value is no more than 20%.
On to `CNC(=O)c1nnc(NC(=O)C2CC2)cc1Nc1cccc(-c2ncn(CCNC(=O)CCC(=O)N[C@H](C(=O)N3C[C@H](O)C[C@H]3C(=O)NCc3ccc(-c4scnc4C)cc3)C(C)(C)C)n2)c1OC` [CPD-075, N^1-(2-(3-(3-((6-(Cyclopropanecarboxamido)-3-(methylcarbamoyl)pyridazin-4-yl)amino)-2-methoxyphenyl)-1H-1,2,4-triazol-1-yl)ethyl)-N^4-((S)-1-((2S,4R)-4-hydroxy-2-((4-(4-methylthiazol-5-yl)benzyl)carbamoyl)pyrrolidin-1-yl)-3,3-dimethyl-1-oxobutan-2-yl)succinamide], for which the “TYK2 Degradation (0.5 μM)” value is recorded as no more than 20% and the “TYK2 Degradation (5 μM)” value was no more than 20%.
For `CNC(=O)c1nnc(NC(=O)C2CC2)cc1Nc1cccc(-c2ncn(CCNC(=O)CCCC(=O)N[C@H](C(=O)N3C[C@H](O)C[C@H]3C(=O)NCc3ccc(-c4scnc4C)cc3)C(C)(C)C)n2)c1OC` [CPD-076, N^1-(2-(3-(3-((6-(Cyclopropanecarboxamido)-3-(methylcarbamoyl)pyridazin-4-yl)amino)-2-methoxyphenyl)-1H-1,2,4-triazol-1-yl)ethyl)-N^5-((S)-1-((2S,4R)-4-hydroxy-2-((4-(4-methylthiazol-5-yl)benzyl)carbamoyl)pyrrolidin-1-yl)-3,3-dimethyl-1-oxobutan-2-yl)glutaramide], the “TYK2 Degradation (0.5 μM)” value was no more than 20% and the “TYK2 Degradation (5 μM)” value was no more than 20%.
`CNC(=O)c1nnc(NC(=O)C2CC2)cc1Nc1cccc(-c2ncn(CCNC(=O)CCCCC(=O)N[C@H](C(=O)N3C[C@H](O)C[C@H]3C(=O)NCc3ccc(-c4scnc4C)cc3)C(C)(C)C)n2)c1OC` [CPD-077, N^1-(2-(3-(3-((6-(Cyclopropanecarboxamido)-3-(methylcarbamoyl)pyridazin-4-yl)amino)-2-methoxyphenyl)-1H-1,2,4-triazol-1-yl)ethyl)-N^6-((S)-1-((2S,4R)-4-hydroxy-2-((4-(4-methylthiazol-5-yl)benzyl)carbamoyl)pyrrolidin-1-yl)-3,3-dimethyl-1-oxobutan-2-yl)adipamide]: the “TYK2 Degradation (0.5 μM)” value was no more than 20% and the “TYK2 Degradation (5 μM)” value is no more than 20%.
With `CNC(=O)c1nnc(NC(=O)C2CC2)cc1Nc1cccc(-c2ncn(CCNC(=O)CCCCCC(=O)N[C@H](C(=O)N3C[C@H](O)C[C@H]3C(=O)NCc3ccc(-c4scnc4C)cc3)C(C)(C)C)n2)c1OC` [CPD-078, N^1-(2-(3-(3-((6-(Cyclopropanecarboxamido)-3-(methylcarbamoyl)pyridazin-4-yl)amino)-2-methoxyphenyl)-1H-1,2,4-triazol-1-yl)ethyl)-N^7-((S)-1-((2S,4R)-4-hydroxy-2-((4-(4-methylthiazol-5-yl)benzyl)carbamoyl)pyrrolidin-1-yl)-3,3-dimethyl-1-oxobutan-2-yl)heptanediamide], the “TYK2 Degradation (0.5 μM)” value is listed as no more than 20% and the “TYK2 Degradation (5 μM)” value was no more than 20%.
For the molecule `CNC(=O)c1nnc(NC(=O)C2CC2)cc1Nc1cccc(-c2ncn(CCNC(=O)CCCCCCC(=O)N[C@H](C(=O)N3C[C@H](O)C[C@H]3C(=O)NCc3ccc(-c4scnc4C)cc3)C(C)(C)C)n2)c1OC` [CPD-079, N^1-(2-(3-(3-((6-(Cyclopropanecarboxamido)-3-(methylcarbamoyl)pyridazin-4-yl)amino)-2-methoxyphenyl)-1H-1,2,4-triazol-1-yl)ethyl)-N^8-((S)-1-((2S,4R)-4-hydroxy-2-((4-(4-methylthiazol-5-yl)benzyl)carbamoyl)pyrrolidin-1-yl)-3,3-dimethyl-1-oxobutan-2-yl)octanediamide], the “TYK2 Degradation (MOLT-4, 0.5 μM)” value is reported as “C (C: ≤20% TYK2 degradation)” and the “TYK2 Degradation (MOLT-4, 5 μM)” value was “C (C: ≤20% TYK2 degradation)”.
As for `CNC(=O)c1nnc(NC(=O)C2CC2)cc1Nc1cccc(-c2ncn(CCNC(=O)CCCCCCCC(=O)N[C@H](C(=O)N3C[C@H](O)C[C@H]3C(=O)NCc3ccc(-c4scnc4C)cc3)C(C)(C)C)n2)c1OC` [CPD-080, N^1-(2-(3-(3-((6-(Cyclopropanecarboxamido)-3-(methylcarbamoyl)pyridazin-4-yl)amino)-2-methoxyphenyl)-1H-1,2,4-triazol-1-yl)ethyl)-N^9-((S)-1-((2S,4R)-4-hydroxy-2-((4-(4-methylthiazol-5-yl)benzyl)carbamoyl)pyrrolidin-1-yl)-3,3-dimethyl-1-oxobutan-2-yl)nonanediamide], the “TYK2 Degradation (MOLT-4, 0.5 μM)” value is listed as “C (C: ≤20% TYK2 degradation)” and the “TYK2 Degradation (MOLT-4, 5 μM)” value is recorded as “C (C: ≤20% TYK2 degradation)”.
Consider `CNC(=O)c1nnc(NC(=O)C2CC2)cc1Nc1cccc(-c2ncn(CCNC(=O)CCCCCCCCC(=O)N[C@H](C(=O)N3C[C@H](O)C[C@H]3C(=O)NCc3ccc(-c4scnc4C)cc3)C(C)(C)C)n2)c1OC` [CPD-081, N^1-(2-(3-(3-((6-(Cyclopropanecarboxamido)-3-(methylcarbamoyl)pyridazin-4-yl)amino)-2-methoxyphenyl)-1H-1,2,4-triazol-1-yl)ethyl)-N^10-((S)-1-((2S,4R)-4-hydroxy-2-((4-(4-methylthiazol-5-yl)benzyl)carbamoyl)pyrrolidin-1-yl)-3,3-dimethyl-1-oxobutan-2-yl)decanediamide], for which the “TYK2 Degradation (MOLT-4, 0.5 μM)” value is “C (C: ≤20% TYK2 degradation)” and the “TYK2 Degradation (MOLT-4, 5 μM)” value is listed as “C (C: ≤20% TYK2 degradation)”.
